Assay results published in patent US20160168540A1, “COMPOSITION FOR MAINTAINING PLATELET FUNCTION” (KYOTO UNIVERSITY, priority 2013, published 2016).
“Also recorded” adds a separate entry of the source. Read-outs that look alike come from different tables or passages of the source.

Columns and labels:
TACE (ADAM17) = biological target: T1, TACE (ADAM17) (Homo sapiens, UniProt P78536); assay: TACE (ADAM17) inhibition test; type: biochemical; conditions: fluorescent synthetic substrate, 37° C. for 1.5 hours
T1 construct: made in house; host or cells: mammalian cells or insect cells
T1 sequence (P78536 215-824): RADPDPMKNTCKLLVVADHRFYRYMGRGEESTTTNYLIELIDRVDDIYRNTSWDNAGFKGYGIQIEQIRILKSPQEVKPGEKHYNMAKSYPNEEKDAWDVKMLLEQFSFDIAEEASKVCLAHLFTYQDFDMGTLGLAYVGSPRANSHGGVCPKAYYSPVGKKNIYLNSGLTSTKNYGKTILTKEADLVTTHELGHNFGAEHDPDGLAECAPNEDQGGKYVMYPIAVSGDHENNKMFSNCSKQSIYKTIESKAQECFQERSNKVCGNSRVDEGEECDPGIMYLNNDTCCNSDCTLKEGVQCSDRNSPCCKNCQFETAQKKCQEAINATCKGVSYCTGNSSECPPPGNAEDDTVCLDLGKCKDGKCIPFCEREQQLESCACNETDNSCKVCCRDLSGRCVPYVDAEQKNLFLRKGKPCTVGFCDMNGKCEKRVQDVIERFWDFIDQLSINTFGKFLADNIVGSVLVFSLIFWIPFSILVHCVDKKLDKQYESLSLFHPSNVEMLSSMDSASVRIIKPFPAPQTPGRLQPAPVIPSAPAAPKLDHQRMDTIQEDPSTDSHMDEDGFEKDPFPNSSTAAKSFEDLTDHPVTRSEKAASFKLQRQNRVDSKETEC
How it was run: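 Recombinant human TACE (mammalian or insect cell expressed) cleaves Nma-LAQAVRSSK(Dnp)-D-Arg-NH2 quenched substrate, 1.5 h at 37 °C. Fluorescence read at Ex 355/Em 460 nm; IC50 from inhibition vs no-compound control, binned A (<100 nM) or B (≥100 nM).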

[1] = system: iPS cell-derived platelets; assay: Function-maintaining effect on iPS cell-derived platelets (flow cytometry of CD41a/CD42a/CD42b); type: cell-based, human
Protocol: Human iPS cells (hiPS cells), an iPS cell line (TkDA3-4) established at the University of Tokyo by introducing Oct4, Klf4, Sox2, and c-Myc into human-derived skin cells were cultured on inactivated mouse fibroblasts by treating with 10 μg/mL MitomycinC (manufactured by Wako Pure Chemical Industries Ltd.) in a medium mixture of Dulbecco's modified Eagle's medium and Ham's F-12 medium (manufactured by Sigma-Aldrich Co.) (mixing ratio 1:1) supplemented with 0.1 mM non-essential amino acid (manufactured by Invitrogen Corp.), PSG (100 U/mL penicillin, 100 U/mL streptomycin, and 2 mM L-glutamine) (manufactured by Invitrogen Corp.), 20% knockout serum replacement additive (KSR, manufactured by Invitrogen Corp.), 0.1 mM 2-mercaptoethanol (manufactured by Invitrogen Corp.), and 5 ng/ml basic fibroblast growth factor (bFGF, manufactured by Wako Pure Chemical Industries Ltd.). The cells were subcultured every 3 days, and those cells maintaining an undifferentiated state were used.
In addition, mouse embryo-derived fibroblasts, a C3H10T½ cell line (hereinafter also referred to as “10T½ cells”), purchased from RIKEN BioResource Center were cultured in basal medium Eagle (BME, manufactured by Invitrogen Corp.) supplemented with 10% fetal bovine serum (FBS) and PSG (100 U/mL penicillin, 100 U/mL streptomycin, and 2 mM L-glutamine) (manufactured by Invitrogen Corp.). Then, the 10T½ cells, which had been deactivated in advance by treating with MitomycinC, were seeded so as to give a cell count of 8×10^6/10-cm dish for use as feeder cells. […]
Next, the sac structures were detached from the dish, split open, passed through a 40-μm cell strainer (manufactured by BD), and then centrifuged at 1,500 rpm for 8 minutes to collect hematopoietic progenitor cells. […] Then, the number of cells was counted. […]

[2] = system: human peripheral blood-derived platelets; assay: Function-maintaining effect on human peripheral blood-derived platelets (CCCP-enhanced GPIbα shedding); type: cell-based; conditions: 0.1 to 100 μM, with 100 μM of CCCP, 37° C. for 24 hours; listed as S-108470
Protocol: First, ACD was added in a ratio of 1/10 to human peripheral blood obtained by collecting blood, and centrifuged at 900 rpm for 10 minutes without a break. The supernatant obtained by the centrifugation was further centrifuged at 1,500 rpm for 10 minutes without a break, and then the supernatant was removed. The obtained precipitate was suspended in a Tyrode-HEPES buffer (not containing calcium). The number of platelets in the suspension was counted, and the platelet-containing suspension (Washed Platelet) was adjusted to have a fixed number (about 5×10^7) of platelets in 200 μL of the Tyrode-HEPES buffer (not containing calcium). Next, as described in Protocol 2 shown in FIG. 1, one of either S-108470 (0.1 to 100 μM), TACE inhibitor S (50 μM), or DMSO was added together with 100 μM of CCCP (carbonyl cyanide m-chlorophenyl hydrazone) to the washed platelets. After incubation at 37° C. for 24 hours, the number of CD42b (GPIbα) (+) cells in the CD41a (+) platelets was measured by flow cytometry. Note that, it is known that addition of CCCP enhances GPIbα shedding on the surface of platelets (see Bergmeier et al., Blood, 2003, vol. 102, pp. 4229-4235).

Row | IC50 (TACE (ADAM17); read-out: TACE IC50) | Compound | further results
1 | < 100 nM | O=C1NC(=O)C(Cn2cccc(Br)c2=O)(c2ccc(Cc3ccccc3)cc2)N1 (racemic) [Compound I-149] | 
2 | < 100 nM | O=C1NC(=O)C(Cn2cccc(Cl)c2=O)(c2ccc(Cc3ccccc3)cc2)N1 (racemic) [Compound I-150] | 
3 | ≥ 100 nM | O=C1NC(=O)C(Cn2cccc(CO)c2=O)(c2ccc(Cc3ccccc3)cc2)N1 (racemic) [Compound I-151] | 
4 | ≥ 100 nM | O=C1NC(=O)C(Cn2cccc(F)c2=O)(c2ccc(Cc3ccccc3)cc2)N1 (racemic) [Compound I-152] | 
5 | < 100 nM | Cc1cccn(CC2(c3cccc(F)c3F)NC(=O)NC2=O)c1=O (racemic) [Compound I-153] | 
6 | < 100 nM | Cc1cccn(CC2(c3cc(F)ccc3F)NC(=O)NC2=O)c1=O (racemic) [Compound I-154] | 
7 | < 100 nM | O=C1NC(=O)C(Cn2ccccc2=O)(c2ccc(F)c(F)c2)N1 (racemic) [Compound I-155] | 
8 | ≥ 100 nM | O=C1NC(=O)C(Cn2ccccc2=O)(c2ccc(Cc3ccccc3)cc2)N1 (racemic) [Compound I-156] | 
9 | < 100 nM | O=C1NC(=O)C(Cn2ccccc2=O)(c2cc(F)c(F)c(F)c2)N1 (racemic) [Compound I-157] | 

Continued, compound first:

Row | Compound | IC50 (TACE (ADAM17); read-out: TACE IC50) | further results
10 | O=C1NC(=O)C(Cn2cccc(Br)c2=O)(c2ccccc2)N1 (racemic) [Compound I-139] | < 100 nM | 
11 | O=C1NC(=O)C(Cn2cccc(C(F)(F)F)c2=O)(c2ccccc2)N1 (racemic) [Compound I-140] | < 100 nM | 
12 | COc1ccc(C2(Cn3cccc(C(F)(F)F)c3=O)NC(=O)NC2=O)cc1 (racemic) [Compound I-141] | < 100 nM | 
13 | N#Cc1ccc(C2(Cn3cccc(C(F)(F)F)c3=O)NC(=O)NC2=O)cc1 (racemic) [Compound I-142] | < 100 nM | 
14 | COc1cccn(CC2(c3ccccc3)NC(=O)NC2=O)c1=O (racemic) [Compound I-143] | ≥ 100 nM | 
15 | C=C(C)c1cccn(CC2(c3ccc(OC)cc3)NC(=O)NC2=O)c1=O (racemic) [Compound I-144] | ≥ 100 nM | 
16 | O=C1NC(=O)C(Cn2cccc(F)c2=O)(c2ccc(F)c(F)c2)N1 (racemic) [Compound I-145] | < 100 nM | 
17 | O=C1NC(=O)C(Cn2cccc(Cl)c2=O)(c2ccc(F)c(F)c2)N1 (racemic) [Compound I-146] | < 100 nM | 
18 | O=C1NC(=O)C(Cn2cccc(Br)c2=O)(c2ccc(F)c(F)c2)N1 (racemic) [Compound I-147] | < 100 nM | 
19 | O=C1NC(=O)C(Cn2cccc(CO)c2=O)(c2ccc(F)c(F)c2)N1 (racemic) [Compound I-148] | ≥ 100 nM | 
20 | Cc1cccn(CC2(c3ccc(F)c(F)c3)NC(=O)NC2=O)c1=O (single isomer, unassigned; (+)) [(+)-I-10, (+)-5-(3,4-difluorophenyl)-5-[(3-methyl-2-oxopyridin-1(2H)-yl)methyl]imidazolidine-2,4-dione] | < 100 nM | IC50 (TACE (ADAM17); read-out: TACE inhibitory action, IC50 value): < 100 nM; number of obtained CD41a (+) CD42a (+) platelets compared with the medium control group ([1]; 10 and 30 μM, treated for 9 to 10 days): slightly larger; percentage of CD41a (+) CD42a (+) CD42b (+) platelets compared with the medium control group ([1]; 10 and 30 μM, treated for 9 to 10 days, listed as S-108470): significant increase; also recorded: increased the percentage of CD42b (+) cells; cytotoxicity / impact on platelet differentiation ([1]; culture system using iPS cells): without exhibiting cytotoxicity or having any impact on platelet differentiation; inhibition of GPIbα shedding (CD42b (GPIbα) (+) cells in the CD41a (+) platelets) [2]: inhibits GPIbα shedding in a concentration-dependent manner; also recorded: suppressed in a concentration-dependent manner
21 | Cc1cc(C2(Cn3cccc(C)c3=O)NC(=O)NC2=O)ccc1OC1C=CCCC1 (centres unmarked) [Compound I-38] | < 100 nM | 
